Laboratory results from patent publication US20100093542A1, “HERBICIDE COMBINATION COMPRISING DIMETHOXYTRIAZINYL SUBSTITUTED DIFLUOROMETHANESULFONYLANILIDES” (BAYER CORPSCIENCE AG, priority 2008, published 2010).
Where two headings read alike, the source gives them in different places.

Experiments:
Experiment in all cases: Post-emergence action against weeds, greenhouse pot test, visual scoring
Assay type in all cases: in vivo
[1] = tested on: Abuthilon theophrasti (ABUTH); details: Abutilon theophrasti, 240 h, read-out: % activity found
Protocol: (§1) Seeds or rhizome pieces of mono- and dicotyledonous harmful and useful plants were placed in peat pots (diameter 4 cm) filled with sandy loam and then covered with soil. The pots were kept in a greenhouse under optimum conditions. In addition, harmful plants encountered in paddy rice cultivation were cultivated in pots with a water level 2 cm above the soil surface.
(§2) About three weeks after the start of the cultivation, the test plants were treated at the 2- to 3-leaf stage. The herbicides, formulated as powder or liquid concentrates, were, either alone or in the combinations according to the invention, sprayed in various dosages on to the green parts of the plants using an application rate of 600 l of water/ha (converted). For further cultivation of the plants, the pots were then again kept under optimum conditions in a greenhouse.
(§3) The visual scoring of the herbicidal effects was carried out in intervals up to 21 days after the treatment. Scoring was carried out in percent in comparison to the untreated control plants. 0%=no herbicidal activity, 100%=complete herbicidal activity=complete kill.
(§4) The percentages from the treatments with the herbicides alone (=individual application) and with the combinations according to the invention (=mixtures) were employed to calculate interactions using the method of Colby. When the observed efficacies of the mixtures exceed the formal sum of the values of the tests with individual applications, they also exceed the expected value according to Colby, which is calculated using the formula below (cf. S. R. Colby; in Weeds 15 (1967) pp. 20 to 22):
(§5) Here: • A, B=activity of components A and B in percent at a dosage of a and b g of ai/ha (=gramm of active substance per hectare), respectively. • E=expected value in % at a dosage of a+b g of ai/ha.

[2] = tested on: Amaranthus retroflexus (AMARE); details: read-out: % activity found; for inhibition at 12 g/ha: A-1 12 g of ai/ha
Protocol: as §1, §2, §3, §4, §5

Avena fatua (AVEFA) = details: read-out: % activity found; for inhibition at 30 g/ha / inhibition at 90 g/ha: AVEFA
Protocol: as §1, §2, §3, §4, §5

[3] = tested on: Cyperus esculentus (CYPES); details: 504 h, read-out: % activity found
Protocol: as §1, §2, §3, §4, §5

[4] = tested on: Fallopia (ex Polygonum) convolvulus (POLCO); details: read-out: % activity found
Protocol: as §1, §2, §3, §4, §5

[5] = tested on: Matricaria inodora (MATIN); details: Tripleurospermum inodorum, read-out: % activity found
Protocol: as §1, §2, §3, §4, §5

Oryza sativa (ORYSA) = details: read-out: % activity found; for inhibition at 90 g/ha: ORYSA, B3-3 90 g of ai/ha
Protocol: as §1, §2, §3, §4, §5

[6] = tested on: Pharbitis purpurea (PHBPU); details: Ipomoea purpurea, read-out: % activity found; for inhibition at 4 g/ha / inhibition at 12 g/ha: PHBPU; for inhibition at 4 g/ha: A-1 4 g of ai/ha; for inhibition at 12 g/ha: A-1 12 g of ai/ha
Protocol: as §1, §2, §3, §4, §5

[7] = tested on: Triticum aestivum (TRZAS); details: read-out: % activity found
Protocol: as §1, §2, §3, §4, §5

Viola tricolor (VIOTR) = details: read-out: % activity found
Protocol: as §1, §2, §3, §4, §5

Zea mays (ZEAMX) = details: read-out: % activity found; for inhibition at 30 g/ha / inhibition at 90 g/ha: ZEAMX
Protocol: as §1, §2, §3, §4, §5

[8] = tested on: Alopecurus myosuroides (ALOMY); details: 504 h, read-out: % activity found
Protocol: as §1, §2, §3, §4, §5

[9] = tested on: Lolium multiflorum (LOLMU); details: read-out: % activity found
Protocol: as §1, §2, §3, §4, §5

Setaria viridis (SETVI) = details: 504 h, read-out: % activity found
Protocol: as §1, §2, §3, §4, §5

[10] = 240 h, 10 DAT, B3-1 30 g of ai/ha
[11] = 240 h, 10 DAT, B3-1 90 g of ai/ha
[12] = 504 h, 21 DAT, B3-3 30 g of ai/ha
[13] = 504 h, 21 DAT, B3-3 90 g of ai/ha

CCSC(C)CC1CC(=O)C(/C(CC)=N/OC/C=C/Cl)=C(O)C1 (racemic) [B2-3, (E,E)-(±)-2-[1-[[(3-chloro-2-propenyl)oxy]imino]propyl]-5-[2-(ethylthio)propyl]-3-hydroxy-2-cyclohexen-1-one]
inhibition at 20 g/ha [1]: 0%
inhibition at 60 g/ha [1]: 0%
inhibition at 20 g/ha ([2]; 240 h): 0%
inhibition at 60 g/ha ([2]; 240 h): 0%
inhibition at 20 g/ha ([2]; 504 h): 0%
inhibition at 60 g/ha ([2]; 504 h): 0%
inhibition at 20 g/ha (Avena fatua (AVEFA); 504 h): 50%
inhibition at 20 g/ha [3]: 0%
inhibition at 60 g/ha [3]: 0%
inhibition at 20 g/ha ([4]; 240 h): 0%
inhibition at 60 g/ha ([4]; 240 h): 0%
inhibition at 20 g/ha ([4]; 504 h): 0%
inhibition at 60 g/ha ([4]; 504 h): 0%
inhibition at 60 g/ha ([5]; 240 h): 0%
inhibition at 20 g/ha ([5]; 504 h): 0%
inhibition at 60 g/ha ([5]; 504 h): 0%
inhibition at 20 g/ha (Oryza sativa (ORYSA); 240 h): 90%
inhibition at 20 g/ha (Oryza sativa (ORYSA); 504 h): 95%
inhibition at 20 g/ha ([6]; 240 h): 0%
inhibition at 60 g/ha ([6]; 240 h): 0%
inhibition at 20 g/ha ([6]; 504 h): 0%
inhibition at 60 g/ha ([6]; 504 h): 0%
inhibition at 20 g/ha ([7]; 240 h): 40%
inhibition at 20 g/ha (Viola tricolor (VIOTR); 240 h): 0%
inhibition at 60 g/ha (Viola tricolor (VIOTR); 240 h): 0%
inhibition at 20 g/ha (Viola tricolor (VIOTR); 504 h): 0%
inhibition at 60 g/ha (Viola tricolor (VIOTR); 504 h): 0%
inhibition at 60 g/ha (Zea mays (ZEAMX); 240 h): 80%

CS(=O)(=O)c1ccc(C(=O)C2C(=O)CCCC2=O)c([N+](=O)[O-])c1 [B3-1, 2-[4-(methylsulfonyl)-2-nitrobenzoyl]-1,3-cyclohexanedione]
inhibition at 30 g/ha ([8]; ALOMY, 21 DAT, B3-1 30 g of ai/ha): 0%
inhibition at 90 g/ha ([8]; ALOMY, 21 DAT, B3-1 90 g of ai/ha): 30%
inhibition at 30 g/ha (Avena fatua (AVEFA); [10]): 0%
inhibition at 90 g/ha (Avena fatua (AVEFA); [11]): 0%
inhibition at 30 g/ha (Avena fatua (AVEFA); 504 h, 21 DAT, B3-1 30 g of ai/ha): 0%
inhibition at 90 g/ha (Avena fatua (AVEFA); 504 h, 21 DAT, B3-1 90 g of ai/ha): 0%
inhibition at 30 g/ha ([9]; 240 h, LOLMU, 10 DAT, B3-1 30 g of ai/ha): 30%
inhibition at 30 g/ha ([9]; 504 h, LOLMU, 21 DAT, B3-1 30 g of ai/ha): 0%
inhibition at 30 g/ha (Setaria viridis (SETVI); SETVI, 21 DAT, B3-1 30 g of ai/ha): 0%
inhibition at 90 g/ha (Setaria viridis (SETVI); SETVI, 21 DAT, B3-1 90 g of ai/ha): 20%
inhibition at 90 g/ha ([7]; 504 h, TRZAS, 21 DAT, B3-1 90 g of ai/ha): 30%
inhibition at 30 g/ha (Zea mays (ZEAMX); [10]): 0%
inhibition at 90 g/ha (Zea mays (ZEAMX); [11]): 20%

CS(=O)(=O)c1ccc(C(=O)C2C(=O)CCCC2=O)c(Cl)c1 [B3-2, 2-[2-chloro-4-(methylsulfonyl)benzoyl]-1,3-cyclohexanedione]
inhibition at 70 g/ha [8]: 0%
inhibition at 210 g/ha [8]: 20%
inhibition at 70 g/ha (Avena fatua (AVEFA); 240 h): 0%
inhibition at 70 g/ha (Avena fatua (AVEFA); 504 h): 0%
inhibition at 210 g/ha (Avena fatua (AVEFA); 504 h): 0%
inhibition at 70 g/ha ([9]; 504 h): 0%
inhibition at 70 g/ha (Setaria viridis (SETVI)): 0%
inhibition at 210 g/ha (Setaria viridis (SETVI)): 20%
inhibition at 70 g/ha (Zea mays (ZEAMX); 240 h): 0%
inhibition at 210 g/ha (Zea mays (ZEAMX); 240 h): 0%
inhibition at 70 g/ha (Zea mays (ZEAMX); 504 h): 0%
inhibition at 210 g/ha (Zea mays (ZEAMX); 504 h): 0%

CS(=O)(=O)c1ccc(C(=O)C2C(=O)CCCC2=O)c(Cl)c1COCC(F)(F)F [B3-3, 2-[2-chloro-4-(methylsulfonyl)-3-[(2,2,2-trifluoroethoxy)methyl]benzoyl]-1,3-cyclohexanedione]
inhibition at 30 g/ha ([8]; ALOMY, 21 DAT, B3-3 30 g of ai/ha): 40%
inhibition at 30 g/ha (Avena fatua (AVEFA); [12]): 0%
inhibition at 90 g/ha (Avena fatua (AVEFA); [13]): 0%
inhibition at 30 g/ha ([9]; 504 h, LOLMU, 21 DAT, B3-3 30 g of ai/ha): 20%
inhibition at 90 g/ha ([9]; 504 h, LOLMU, 21 DAT, B3-3 90 g of ai/ha): 50%
inhibition at 90 g/ha (Oryza sativa (ORYSA); 240 h, 10 DAT): 40%
inhibition at 90 g/ha (Oryza sativa (ORYSA); 504 h, 21 DAT): 30%
inhibition at 30 g/ha (Setaria viridis (SETVI); SETVI, 21 DAT, B3-3 30 g of ai/ha): 50%
inhibition at 30 g/ha (Zea mays (ZEAMX); 240 h, 10 DAT, B3-3 30 g of ai/ha): 0%
inhibition at 90 g/ha (Zea mays (ZEAMX); 240 h, 10 DAT, B3-3 90 g of ai/ha): 0%
inhibition at 30 g/ha (Zea mays (ZEAMX); [12]): 0%
inhibition at 90 g/ha (Zea mays (ZEAMX); [13]): 0%

COc1nc(OC)nc(C(=O)c2cccc(F)c2N(C)S(=O)(=O)C(F)F)n1 [A-1]
inhibition at 4 g/ha ([1]; ABUTH, 10 DAT, A-1 4 g of ai/ha): 70%
inhibition at 12 g/ha ([1]; ABUTH, 10 DAT, A-1 12 g of ai/ha): 70%
inhibition at 12 g/ha ([2]; 240 h, AMARE, 10 DAT): 70%
inhibition at 4 g/ha ([2]; 504 h, AMARE, 21 DAT, A-1 4 g of ai/ha): 70%
inhibition at 12 g/ha ([2]; 504 h, AMARE, 21 DAT): 75%
inhibition at 4 g/ha ([4]; 240 h, POLCO, 10 DAT, A-1 4 g of ai/ha): 70%
inhibition at 12 g/ha ([4]; 240 h, POLCO, 10 DAT, A-1 12 g of ai/ha): 70%
inhibition at 4 g/ha ([5]; 240 h, MATIN, 10 DAT, A-1 4 g of ai/ha): 60%
inhibition at 4 g/ha ([6]; 240 h, 10 DAT): 60%
inhibition at 12 g/ha ([6]; 240 h, 10 DAT): 60%
inhibition at 4 g/ha ([6]; 504 h, 21 DAT): 60%
inhibition at 12 g/ha ([6]; 504 h, 21 DAT): 65%
inhibition at 12 g/ha (Viola tricolor (VIOTR); 240 h, VIOTR, 10 DAT, A-1 12 g of ai/ha): 20%
